From patent US20090197917A1, “USE OF RIMONABANT FOR THE PREPARATION OF MEDICAMENTS USEFUL IN THE PREVENTION AND TREATMENT OF TYPE 2 DIABETES” (SANOFI-AVENTIS, priority 2005, published 2009)

Key:
fa/fa obese Zucker rats = assay: Long-term (12 months) treatment of obese Zucker rats: protection of the pancreas; format: in vivo, rat
Description: The effect of a long-term (12 months) treatment with rimonabant was studied in Zucker rats with established obesity.
The fa/fa strain of obese Zucker rats is characterized by hyperphagia, obesity, dyslipidaemia and type 2 diabetes.
After 12 months, the fa/fa obese Zucker rats treated with the vehicle show a marked hypertrophy of the pancreas (+38%, p<0.05).

[1] = system: obese subjects with type 2 diabetes; assay: Rio-Diabetes clinical study, 12 months, rimonabant 20 mg versus placebo; format: in vivo, human
Description: The Rio-Diabetes clinical study, carried out over 12 months in 1045 obese subjects with type 2 diabetes treated by monotherapy (metformin or sulfonylureas) compares the effect of rimonabant at the dose of 20 mg versus a placebo product in weight reduction; the improvement of glycosylated haemoglobin (HbAlc), of glycemia, of insulinaemia and lipid parameters. A low-calorie diet (deficit of 600 Kcal/day) is prescribed for all the patients and is introduced 4 weeks before the start of the treatment period.
The insulin resistance is evaluated by the HOMA (Homeostasis Model Assessment) test described by Matthew D. R. et al. in Diabetologica, 1985, 28, 412-419.

[2] = logistic regression analysis with weight as co-variable
[3] = rimonabant 20 mg, 12 months, p<0.001

## Cc1c(C(=O)NN2CCCCC2)nn(-c2ccc(Cl)cc2Cl)c1-c1ccc(Cl)cc1 [rimonabant, N-piperidino-5-(4-chlorophenyl)-1-(2,4-dichlorophenyl)-4-methylpyrazole-3-carboxamide]
fa/fa obese Zucker rats; 3 mg/kg/day, vehicle +38%
  hypertrophy of the pancreas: +17%
fa/fa obese Zucker rats; 10 mg/kg/day, p<0.05, vehicle +38%
  hypertrophy of the pancreas: +1%
[1]; [2]
  effect independent of the weight loss for the improvement in HDL-c: about 55%
  effect independent of the weight loss for the improvement in HbAlc: about 55%
  effect independent of the weight loss for the triglycerides: about 35%
[1]; rimonabant 20 mg
  time after which the loss of weight appears stabilized: 6 months
[1]; rimonabant 20 mg group, 12 months, p<0.001 vs placebo
  decrease in glycemia on an empty stomach: 0.64 ± 1.96 mmol/L
[1]; rimonabant 20 mg, 12 months
  improvement in insulin resistance evaluated by the HOMA test: −0.5±5.7%
[1]; [3]
  decrease of triglycerides compared with the placebo group: more than 16.4±3.3%
  difference in the reduction of the level of HbAlc compared with the placebo: 0.7±0.1%
  greater weight loss than that observed in the placebo group: 4.2 ± 0.4 kg
  increase in the HDL-c level compared with the placebo: greater than 8.4±1.2%
[1]; rimonabant 20 mg, 12 months, p=0.247 vs placebo
  reduction of insulinaemia on an empty stomach: 0.7±9.9 μIU/mL
[1]; rimonabant 20 mg, p=0.020
  reduction in the systolic blood pressure: 0.8±12.8 mmHg
[1]; rimonabant 20 mg, p=0.060
  reduction in the diastolic blood pressure: 1.9±8.2 mmHg
[1]; rimonabant 20 mg, then maintained up to 12 months
  time at which the reduction of HbAlc is maximum: 9 months
[1]; rimonabant combined with a sulfonylurea, p<0.001
  HbAlc difference compared with the placebo: 0.7±0.1%
[1]; rimonabant combined with metformin, p<0.001
  HbAlc difference compared with the placebo: 0.7±0.1%
[1]; rimonabant-metformin combination, p<0.001
  difference in weight loss compared with the placebo group: 4.3 ± 0.4 kg
[1]; rimonabant-sulfonylurea combination, p<0.001
  difference in weight loss compared with the placebo group: 3.1 ± 0.5 kg
